Columns and labels:
pRb (Ser780) = assay: High content imaging of Rb phosphorylation (Ser780), MDA-MB-361; format: cell-based; settings: Homo sapiens, 16 hours, mean ± Stdev n = 2
Description: Relative IC50/EC50 values were determined by curve fitting to a four parameter logistic equation: Y = bottom + ((top-bottom)/ (1+exp(HillSlope*(X – LnIC50)), where X is the natural log of dose/concentration, Y is response, decreasing as X increases, top and bottom are plateaus in the same units as Y, lnIC50 is the natural log of potency, in the same log units as X, and HillSlope measures the steepness of the curve. Data were plotted using GraphPad Prism.
As controls, cells were treated with 10 µM palbociclib or vehicle ( 0.2 % v/v DMSO). Additional details for cell-based assays are provided in the Supplemental Methods. […]
www.impactjournals.com/oncotarget/ Oncotarget Supplementary Materials
Preclinical characterization of abemaciclib in hormone receptor […]
METHODS High content imaging cell-based assays for monitoring phosphorylation of Rb (ser780), G1 arrest and
Enzyme kinetics of CDK6/cyclin D3 complexes Cells were fixed with para-formaldehyde and Rb phosphorylation at Serine 780 was detected using CDK6/cyclin D3 activity was measured by the a primary mouse anti-Rb (PS780) antibody followed phosphorylation of CTRF using [g-33P] […] Plates were read in an kinase buffer containing 68 mM Hepes at pH 7.5, 6.67 mM Acumen Explorer eX3 (TTP Labtech). […]
(EDTA) was used to determine the level of background evaluated by measuring PI signal using high content 33P in the absence of enzyme activity. […]

ZR-75-1 xenograft tumors = assay: In vivo target inhibition, immunoblotting of ZR-75-1 xenograft tumors; parameters: species or system mouse; settings: 50 or 75 mg/kg QD x 5, Western blots
Description: Control animals were treated with vehicle (1% HEC/ 25 mM phosphate buffer, pH = 2) using the same schedule of dosing. The red bar just above the X-axis illustrates the duration of the treatment period. Tumor volume measurements were taken routinely during the course of the study and are plotted as mean +/- SEM versus days following tumor cell implantation. (B) Body weights were recorded routinely during the course of the study and are plotted as mean % change (+/– SEM) relative to the mean body weight recorded on the day just prior to the first day of dosing (baseline day = 27). (C) The waterfall plots indicate the relative tumor volumes for individual animals which were determined at the end of the dosing period (study day 55). […] Growth inhibition is observed in those instances where the calculated changes in %DT/C are less than 100% whereby greater inhibition results in smaller %DT/C values. Change in %DT/C values that are less than zero indicate regressions whereby the tumor volumes on day 55 are smaller than the baseline tumor volume measured on the day prior to the initiation of dosing (baseline day = day 27). […] The tumor volumes measured on day 27 served as the baseline volumes for the calculation of %DT/C. […] Potential CDK9 inhibition was assessed by measuring the expression of MCL1 or phosphorylation of serine 2 on the C-terminal domain repeat on RNA polymerase II (pCTD). […]

IC50 (pRb (Ser780)): 0.067 ± 0.037 µM
SMILES: CCN1CCN(Cc2ccc(Nc3ncc(F)c(-c4cc(F)c5nc(C)n(C(C)C)c5c4)n3)nc2)CC1 [abemaciclib, Abemaciclib]
CDK9 inhibition in tumors (pCTD, MCL1 expression) (ZR-75-1 xenograft tumors): not inhibited at any dose
phospho-(Ser780/807/811)-Rb, Topo IIα and phospho-(Ser10)-H3 in tumors (ZR-75-1 xenograft tumors; tumors collected 24 hours later): inhibition of phospho-(Ser780/807/811)-Rb
